In patent US9890147B2 (BAYER PHARMA AKTIENGESELLSCHAFT, priority 2012, dated 2018):

How the values were obtained:
[1] = molecular target: T1, BRD4 (BD1) (Homo sapiens, UniProt O60885); assay: Binding assay BRD4/acetylated peptide H4 (TR-FRET protein-protein interaction assay)
T1 construct: with relatively long constructs also being possible, preferably amino acids 44-168; made in house; host or cells: E. coli
How it was run: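 His6-BRD4 BD1 (aa 67-152, E. coli), usually 10 nM, with biotinylated tetra-acetylated H4 peptide in HEPES pH 7.5 buffer; 11 compound concentrations 0.1 nM–20 μM in duplicate, 10 min preincubation, 1 h at 22 °C then ≥3 h at 4 °C. TR-FRET 665/620 ratio; IC50 by 4-parameter fit.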

[2] = system: MOLM-13 cells; assay: Cell proliferation assay (alamarBlue), MOLM-13; format: cell-based; conditions: 96 hours incubation, inhibition of cell proliferation
How it was run: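 Cells in RPMI1640/10% FCS read by alamarBlue fluorescence (ex 530, em 590 nm) after overnight 37 °C incubation, then treated at 1E-5 to 1E-8 M for 96 h. Pre-treatment values subtracted from endpoint values and compared with buffer-only wells; IC50 is 50% proliferation inhibition.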

## CNC(=O)N1N=C(c2ccc(Cl)cc2)c2cc(OC(F)(F)F)c(Cl)cc2CC1C (single isomer, unassigned) [Example 15.1, 7-Chloro-1-(4-chlorophenyl)-N,4-dimethyl-8-(trifluoromethoxy)-4,5-dihydro-3H-2,3-benzodiazepine-3-carboxamide]
[1]
  IC50: 450 nM
[2]; Homo sapiens
  IC50: 3050 nM

## CNC(=O)N1N=C(c2ccc(-c3sc(C)nc3C)cc2)c2cc(OC)c(OC)cc2C[C@@H]1C (single isomer, unassigned) [Example 46.1]
[1]
  IC50: 960 nM
[2]; Homo sapiens
  IC50: 5140 nM

## CNC(=O)N1N=C(c2ccc(N3CCOCC3)cc2)c2cc(OC)c(OC)cc2C[C@H]1C [Example 7.1, (4R)-7,8-dimethoxy-N,4-dimethyl-1-[4-(morpholin-4-yl)phenyl]-4,5-dihydro-3H-2,3-benzodiazepine-3-carboxamide]
[1]
  IC50: 3190 nM
[2]; Homo sapiens
  IC50: > 10000 nM

## CNC(=O)N1N=C(c2ccc(-c3cnn(C)c3)cc2)c2cc(OC)ccc2C[C@@H]1C [Example 21, (4S)-8-methoxy-N,4-dimethyl-1-[4-(1-methyl-1H-pyrazol-4-yl)phenyl]-4,5-dihydro-3H-2,3-benzodiazepine-3-carboxamide]
[1]
  IC50: 130 nM
[2]; Homo sapiens
  IC50: 560 nM

## CCc1cc(C2CC2)nn1-c1ccc(C2=NN(C(=O)NC)[C@@H](C)Cc3ccc(OC)cc32)cc1 [Example 24]
[1]
  IC50: 250 nM
[2]; Homo sapiens
  IC50: 1170 nM

## CCc1cc(C2CC2)n(-c2ccc(C3=NN(C(=O)NC)[C@@H](C)Cc4ccc(OC)cc43)cc2)n1 [Example 25, (4S)-1-[4-(5-cyclopropyl-3-ethyl-1H-pyrazol-1-yl)phenyl]-8-methoxy-N,4-dimethyl-4,5-dihydro-3H-2,3-benzodiazepine-3-carboxamide]
[1]
  IC50: 160 nM
[2]; Homo sapiens
  IC50: 740 nM

## CNC(=O)N1N=C(c2ccc(-n3nc(C4CC4)cc3-c3ccccn3)cc2)c2cc(OC)ccc2C[C@@H]1C [Example 29, (4S)-1-{4-[3-cyclopropyl-5-(pyridin-2-yl)-1H-pyrazol-1-yl]phenyl}-8-methoxy-N,4-dimethyl-4,5-dihydro-3H-2,3-benzodiazepine-3-carboxamide]
[1]
  IC50: 130 nM
[2]; Homo sapiens
  IC50: 360 nM

## CNC(=O)N1N=C(c2ccc(-n3cnnn3)cc2)c2cc(OC)ccc2C[C@@H]1C [Example 30, (4S)-8-Methoxy-N,4-dimethyl-1-[4-(1H-tetrazol-1-yl)phenyl]-4,5-dihydro-3H-2,3-benzodiazepine-3-carboxamide]
[1]
  IC50: 230 nM
[2]; Homo sapiens
  IC50: 790 nM

## CNC(=O)N1N=C(c2ccc(Cl)cc2)c2cc(OCCN3CCCC3)ccc2CC1C (centres unmarked) [Example 33]
[1]
  IC50: 770 nM
[2]
  IC50: 3310 nM

## CNC(=O)N1N=C(c2ccc(N3CCN(C)CC3=O)cc2)c2cc(OC)c(OC)cc2C[C@@H]1C [Example 43.1, (4S)-7,8-dimethoxy-N,4-dimethyl-1-[4-(4-methyl-2-oxopiperazin-1-yl)phenyl]-4,5-dihydro-3H-2,3-benzodiazepine-3-carboxamide]
[1]
  IC50: 170 nM
[2]; Homo sapiens
  IC50: 810 nM

## CNC(=O)N1N=C(c2ccc(N3CCN(C)CC3=O)cc2)c2cc(OC)c(OC)cc2C[C@H]1C [Example 43.2, (4R)-7,8-dimethoxy-N,4-dimethyl-1-[4-(4-methyl-2-oxopiperazin-1-yl)phenyl]-4,5-dihydro-3H-2,3-benzodiazepine-3-carboxamide]
[1]
  IC50: 4520 nM
[2]; Homo sapiens
  IC50: 9850 nM

## CNC(=O)N1N=C(c2ccc(-c3cn(C)nn3)cc2)c2cc(OC)c(OC)cc2C[C@@H]1C [Example 45.1, (4S)-7,8-dimethoxy-N,4-dimethyl-1-[4-(1-methyl-1H-1,2,3-triazol-4-yl)phenyl]-4,5-dihydro-3H-2,3-benzodiazepine-3-carboxamide]
[1]
  IC50: 70 nM
[2]; Homo sapiens
  IC50: 220 nM

## CNC(=O)N1N=C(c2ccc(-c3ccc(O)nc3)cc2)c2cc(OC)c(OC)cc2C[C@@H]1C [Example 49.1, (4S)-1-[4-(6-hydroxypyridin-3-yl)phenyl]-7,8-dimethoxy-N,4-dimethyl-4,5-dihydro-3H-2,3-benzodiazepine-3-carboxamide]
[1]
  IC50: 20 nM
[2]; Homo sapiens
  IC50: 230 nM

## CNC(=O)N1N=C(c2ccc(-c3ccc(C(F)(F)F)nc3)cc2)c2cc(OC)c(OC)cc2C[C@@H]1C [Example 50.1, (4S)-7,8-dimethoxy-N,4-dimethyl-1-{4-[6-(trifluoromethyl)pyridin-3-yl]phenyl}-4,5-dihydro-3H-2,3-benzodiazepine-3-carboxamide]
[1]
  IC50: 110 nM
[2]; Homo sapiens
  IC50: 370 nM

## CNC(=O)N1N=C(c2ccc(-c3c(C)nn(C)c3C)cc2)c2cc(OC)c(OC)cc2C[C@H]1C [Example 51.1, (4R)-7,8-dimethoxy-N,4-dimethyl-1-[4-(1,3,5-trimethyl-1H-pyrazol-4-yl)phenyl]-4,5-dihydro-3H-2,3-benzodiazepine-3-carboxamide]
[1]
  IC50: 1860 nM
[2]; Homo sapiens
  IC50: > 10000 nM

## CNC(=O)N1N=C(c2ccc(N3CCN(C)CC3)cc2)c2cc(OC)c(OC)cc2C[C@H]1C [Example 127.2, (4R)-7,8-dimethoxy-N,4-dimethyl-1-[4-(4-methylpiperazin-1-yl)phenyl]-4,5-dihydro-3H-2,3-benzodiazepine-3-carboxamide]
[1]
  IC50: 8800 nM
[2]; Homo sapiens
  IC50: > 10000 nM

## CNC(=O)N1N=C(c2ccc(N3CCC3)cc2)c2cc(OC)c(OC)cc2C[C@H]1C [Example 128.1, (4R)-1-[4-(azetidin-1-yl)phenyl]-7,8-dimethoxy-N,4-dimethyl-4,5-dihydro-3H-2,3-benzodiazepine-3-carboxamide]
[1]
  IC50: 3980 nM
[2]; Homo sapiens
  IC50: > 10000 nM

## CNC(=O)N1N=C(c2ccc(N3CC(F)C3)cc2)c2cc(OC)c(OC)cc2C[C@H]1C [Example 129.1, (4R)-1-[4-(3-fluoroazetidin-1-yl)phenyl]-7,8-dimethoxy-N,4-dimethyl-4,5-dihydro-3H-2,3-benzodiazepine-3-carboxamide]
[1]
  IC50: 6620 nM
[2]; Homo sapiens
  IC50: > 10000 nM

## CNC(=O)N1N=C(c2ccc(N3CCN(C(C)=O)CC3)cc2)c2cc(OC)c(OC)cc2C[C@H]1C [Example 132.1, (4R)-1-[4-(4-acetylpiperazin-1-yl)phenyl]-7,8-dimethoxy-N,4-dimethyl-4,5-dihydro-3H-2,3-benzodiazepine-3-carboxamide]
[1]
  IC50: 4080 nM
[2]; Homo sapiens
  IC50: 7560 nM

## CNC(=O)N1N=C(c2ccc(N3CCN(C(C)=O)CC3)cc2)c2cc(OC)c(OC)cc2C[C@@H]1C [Example 132.2, (4S)-1-[4-(4-acetylpiperazin-1-yl)phenyl]-7,8-dimethoxy-N,4-dimethyl-4,5-dihydro-3H-2,3-benzodiazepine-3-carboxamide]
[1]
  IC50: 20 nM
[2]; Homo sapiens
  IC50: 230 nM

## CNC(=O)N1N=C(c2ccc(N3CCN(C(=O)C(C)(C)O)CC3)cc2)c2cc(OC)c(OC)cc2C[C@@H]1C [Example 134.1, (4S)-1-{4-[4-(2-hydroxy-2-methylpropanoyl)piperazin-1-yl]phenyl}-7,8-dimethoxy-N,4-dimethyl-4,5-dihydro-3H-2,3-benzodiazepine-3-carboxamide]
[1]
  IC50: 30 nM
[2]; Homo sapiens
  IC50: 80 nM

## CNC(=O)N1N=C(c2ccc(N3CCS(=O)(=O)CC3)cc2)c2cc(OC)c(OC)cc2C[C@@H]1C [Example 136, (4S)-1-[4-(1,1-dioxidothiomorpholin-4-yl)phenyl]-7,8-dimethoxy-N,4-dimethyl-4,5-dihydro-3H-2,3-benzodiazepine-3-carboxamide]
[1]
  IC50: 20 nM
[2]; Homo sapiens
  IC50: 200 nM

## CNC(=O)N1N=C(c2ccc(N3CCN(C)C(=O)C3)cc2)c2cc(OC)c(OC)cc2C[C@@H]1C [Example 138.1, (4S)-7,8-dimethoxy-N,4-dimethyl-1-[4-(4-methyl-3-oxopiperazin-1-yl)phenyl]-4,5-dihydro-3H-2,3-benzodiazepine-3-carboxamide]
[1]
  IC50: 40 nM
[2]; Homo sapiens
  IC50: 180 nM

## CNC(=O)N1N=C(c2ccc(-n3ccc(-c4ccc(F)cc4)n3)cc2)c2cc(OC)c(OC)cc2C[C@H]1C [Example 150.2, (4R)-1-{4-[3-(4-fluorophenyl)-1H-pyrazol-1-yl]phenyl}-7,8-dimethoxy-N,4-dimethyl-4,5-dihydro-3H-2,3-benzodiazepine-3-carboxamide]
[1]
  IC50: 12300 nM
[2]; Homo sapiens
  IC50: 9870 nM

## CNC(=O)N1N=C(c2ccc(-c3c(C)noc3C)cc2)c2cc(OC(F)(F)F)c(Cl)cc2C[C@@H]1C [Example 156.1, (4S)-7-Chloro-1-[4-(3,5-dimethylisoxazol-4-yl)phenyl]-N,4-dimethyl-8-(trifluoromethoxy)-4,5-dihydro-3H-2,3-benzodiazepine-3-carboxamide]
[1]
  IC50: 330 nM
[2]; Homo sapiens
  IC50: 560 nM

## CNC(=O)N1N=C(c2ccc(-c3c(C)noc3C)cc2)c2cc(OC(F)(F)F)c(Cl)cc2C[C@H]1C [Example 156.2, (4R)-7-Chloro-1-[4-(3,5-dimethylisoxazol-4-yl)phenyl]-N,4-dimethyl-8-(trifluoromethoxy)-4,5-dihydro-3H-2,3-benzodiazepine-3-carboxamide]
[1]
  IC50: 2240 nM
[2]; Homo sapiens
  IC50: > 10000 nM

## CNC(=O)N1N=C(c2ccc(-c3c(C)noc3C)cc2)c2cc(Cl)c(OC)cc2C[C@@H]1C [Example 157.1, (4S)-8-chloro-1-[4-(3,5-dimethylisoxazol-4-yl)phenyl]-7-methoxy-N,4-dimethyl-4,5-dihydro-3H-2,3-benzodiazepine-3-carboxamide]
[1]
  IC50: 130 nM
[2]; Homo sapiens
  IC50: 120 nM

## CNC(=O)N1N=C(c2ccc(-c3c(C)noc3C)cc2)c2cc(Cl)c(OC)cc2C[C@H]1C [Example 157.2, (4R)-8-chloro-1-[4-(3,5-dimethylisoxazol-4-yl)phenyl]-7-methoxy-N,4-dimethyl-4,5-dihydro-3H-2,3-benzodiazepine-3-carboxamide]
[1]
  IC50: 470 nM
[2]; Homo sapiens
  IC50: 2190 nM
